Assay results published in patent US10111435B2, “Herbicidal compositions containing N-(1,3,4-oxadiazol-2-yl)-aryl carboxylic acid amides” (BAYER CROPSCIENCE AKTIENGESELLSCHAFT, priority 2013, dated 2018).
Like-named read-outs stand apart in the source and are kept apart here.

Key:
Type in all cases: in vivo
[1] = system: Chenopodium album (CHEAL); assay: greenhouse post-emergence herbicidal efficacy against CHEAL
Procedure: (§1) All trials whose results are shown were conducted in a greenhouse by the methodology specified below. The effect of the inventive herbicidal compositions was examined on the following harmful plants 14 and 21 days after application:
(§2) Echinochloa crus-galli (ECHCG), Eleusine indica (ELEIN), Setaria viridis (SETVI), Amaranthus retroflexus (AMARE), Chenopodium album (CHEAL), Kochia scoparia (KCHSC), Solanum nigrum (SOLNI), Avena fatua (AVEFA), Bromus sterilis (BROST), Lolium multiflorum (LOLMU), Phalaris minor (PHAMI), Poa annua (POAAN), Galium aparine (GALAP), Matricaria inodora (MATIN) and Polygonum convolvulus (POLCO).
(§3) The harmful plant seeds were sown in pots (diameter 8 cm) with sandy loam soil and germinated under optimal conditions. The inventive herbicidal compositions or the active ingredients alone were applied post-emergence to the planted pots with a spray volume of 300 L/ha. The trial was conducted in a greenhouse under optimum growth conditions. The herbicidal effects were assessed visually by comparison of untreated and treated plants. The percentages mean: 0%=no effects, 100%=the plants die off completely). The percentages are used to calculate interactions between individual treatments and combination treatments according to S. R. Colby, Weeds 15, pages 20 to 22 (1967).
(§4) The abbreviations mean: • a.i.=active ingredient • E^C=expected value according to Colby (E^C=A+B−A×B/100) • Diff: =difference (%) of measured value from expected value (%) (measured value minus expected value)
(§5) Assessment: • measured value E is greater than E^C:->synergism (+ diff.) • measured value E equals E^C:->additive effect • measured value E is smaller than E^C:->antagonism(− diff.)

Eleusine indica (ELEIN) = assay: greenhouse post-emergence herbicidal efficacy against ELEIN; conditions: for pest or weed control at […]: 2.5 g of a.i./ha; for pest or weed control at 10 g/ha: 10 g of a.i./ha; for pest or weed control at 300 g/ha / pest or weed control at 1200 g/ha: read-out: Efficacy
Procedure: as §1, §2, §3, §4, §5

Setaria viridis (SETVI) = assay: greenhouse post-emergence herbicidal efficacy against SETVI
Procedure: as §1, §2, §3, §4, §5

Poa annua (POAAN) = assay: greenhouse post-emergence herbicidal efficacy against POAAN
In short: (§6)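 Read-out is visual percent herbicidal effect relative to untreated plants, taken 14 and 21 days after treatment. Pot-grown plants in sandy loam received mixtures or solo active ingredients post-emergence at a spray volume of 300 L/ha under optimum greenhouse conditions.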

[2] = system: Lolium multiflorum (LOLMU); assay: greenhouse post-emergence herbicidal efficacy against LOLMU
In short: as §6

Phalaris minor (PHAMI) = assay: greenhouse post-emergence herbicidal efficacy against PHAMI
In short: as §6

[3] = system: Amaranthus retroflexus (AMARE); assay: greenhouse post-emergence herbicidal efficacy against AMARE
Procedure: as §1, §2, §3, §4, §5

[4] = system: Matricaria inodora (MATIN); assay: greenhouse post-emergence herbicidal efficacy against MATIN
In short: as §6

DIGSA = assay: greenhouse post-emergence herbicidal efficacy against DIGSA
Procedure: as §1, §3, §4, §5

Galium aparine (GALAP) = assay: greenhouse post-emergence herbicidal efficacy against GALAP
In short: as §6

[5] = system: Polygonum convolvulus (POLCO); assay: greenhouse post-emergence herbicidal efficacy against POLCO
In short: as §6

Bromus sterilis (BROST) = assay: greenhouse post-emergence herbicidal efficacy against BROST
In short: as §6

[6] = system: Echinochloa crus-galli (ECHCG); assay: greenhouse post-emergence herbicidal efficacy against ECHCG
Procedure: as §1, §2, §3, §4, §5

Solanum nigrum (SOLNI) = assay: greenhouse post-emergence herbicidal efficacy against SOLNI
Procedure: as §1, §2, §3, §4, §5

Avena fatua (AVEFA) = assay: greenhouse post-emergence herbicidal efficacy against AVEFA
In short: as §6

[7] = 14 days after application, 0.1 g of a.i./ha
[8] = 14 days after application, 0.4 g of a.i./ha
[9] = 21 days after application, 0.4 g of a.i./ha
[10] = 14 days after application, 2.5 g of a.i./ha
[11] = 21 days after application, g of a.i./ha: A1-14 2.5, pyrasulfotole 25
[12] = 21 days after application, g of a.i./ha: A1-14 2.5, pyrasulfotole 100
[13] = 14 days after application, 10 g of a.i./ha
[14] = 21 days after application, g of a.i./ha: A1-14 10, pyrasulfotole 25
[15] = 21 days after application, g of a.i./ha: A1-14 10, pyrasulfotole 100
[16] = 14 days after application, 2 g of a.i./ha
[17] = 21 days after application, 2 g of a.i./ha
[18] = 21 days after application, g of a.i./ha: A1-36 10, flurtamone 80
[19] = 21 days after application, 0.5 g of a.i./ha
[20] = 21 days after application, g of a.i./ha: A1-36 2.5, flurtamone 80
[21] = 21 days after application, g of a.i./ha: A1-36 2.5, flurtamone 320
[22] = 21 days after application, g of a.i./ha: A1-36 10, flurtamone 320
[23] = 14 days after application, 0.5 g of a.i./ha
[24] = 14 days after application, 400 g of a.i./ha
[25] = 21 days after application, 400 g of a.i./ha
[26] = 14 days after application, 100 g of a.i./ha
[27] = 21 days after application, 100 g of a.i./ha
[28] = Eleusine indica, post-emergence, 336 h, 14 days after application
[29] = Eleusine indica, post-emergence, 504 h, 21 days after application
[30] = 21 days after application, 2.5 g of a.i./ha
[31] = 21 days after application, 10 g of a.i./ha
[32] = Eleusine indica, post-emergence, 336 h
[33] = Eleusine indica, post-emergence, 504 h
[34] = 14 days after application, 300 g of a.i./ha
[35] = 14 days after application, 1200 g of a.i./ha
[36] = 21 days after application, 300 g of a.i./ha
[37] = 21 days after application, 1200 g of a.i./ha

Cc1nnc(NC(=O)c2ccc(C(F)(F)F)c([S+](C)[O-])c2Cl)o1 (stereo not shown) [A1-14]
15%: Efficacy (Galium aparine (GALAP); [14])
20%: Efficacy (Eleusine indica (ELEIN); [8]) | Efficacy [5, 10] | Efficacy [5, 13]
10%: Efficacy (Poa annua (POAAN); [10])
60%: Efficacy [4, 13]
0%: Efficacy [1, 7] | Efficacy ([1]; 21 days after application, 0.1 g of a.i./ha) | Efficacy (Eleusine indica (ELEIN); [7]) | Efficacy (Setaria viridis (SETVI); [7]) | Efficacy (Setaria viridis (SETVI); [9]) | Efficacy (Poa annua (POAAN); [11]) | Efficacy (Poa annua (POAAN); [12]) | Efficacy [2, 10] | Efficacy [2, 13] | Efficacy (Phalaris minor (PHAMI); [10]) | Efficacy (Phalaris minor (PHAMI); [11]) | Efficacy (Phalaris minor (PHAMI); [12]) | Efficacy [3, 7] | Efficacy (DIGSA; [8]) | Efficacy (DIGSA; [9]) | Efficacy (Galium aparine (GALAP); [11]) | Efficacy [5, 11] | Efficacy [5, 12] | Efficacy (Bromus sterilis (BROST); [10]) | Efficacy (Bromus sterilis (BROST); [15]) | Efficacy [6, 8] | Efficacy [6, 9]
25%: Efficacy (Phalaris minor (PHAMI); [13])
3%: Efficacy [5, 14] | Efficacy [5, 15] | Efficacy (Bromus sterilis (BROST); [13])
50%: Efficacy [4, 10]
30%: Efficacy [4, 12]

Cc1nnc(NC(=O)c2ccc(C(F)(F)F)c(S(C)(=O)=O)c2Cl)o1 [A1-36]
10%: Efficacy (DIGSA; [23]) | Efficacy (DIGSA; [19]) | Efficacy (Avena fatua (AVEFA); [20]) | Efficacy (Avena fatua (AVEFA); [21]) | Efficacy [6, 23]
50%: Efficacy (Eleusine indica (ELEIN); [16]) | Efficacy (Solanum nigrum (SOLNI); [17])
0%: Efficacy [2, 18] | Efficacy (Phalaris minor (PHAMI); [10]) | Efficacy [4, 20] | Efficacy [4, 21] | Efficacy (Galium aparine (GALAP); [20]) | Efficacy [5, 10] | Efficacy (Avena fatua (AVEFA); [10]) | Efficacy (Bromus sterilis (BROST); [10]) | Efficacy [6, 19]
65%: Efficacy (Setaria viridis (SETVI); [17])
40%: Efficacy [4, 13] | Efficacy [6, 16]
20%: Efficacy (Phalaris minor (PHAMI); [18]) | Efficacy [3, 19] | Efficacy [6, 17]
30%: Efficacy (Eleusine indica (ELEIN); [17]) | Efficacy (Phalaris minor (PHAMI); [13])
5%: Efficacy (Galium aparine (GALAP); [10]) | Efficacy (Bromus sterilis (BROST); [20]) | Efficacy (Bromus sterilis (BROST); [21])
70%: Efficacy [3, 17]
25%: Efficacy (Galium aparine (GALAP); [13]) | Efficacy (Galium aparine (GALAP); [18]) | Efficacy (Galium aparine (GALAP); [22])
3%: Efficacy [2, 13] | Efficacy [5, 18] | Efficacy [5, 22]
15%: Efficacy [4, 10] | Efficacy [4, 18] | Efficacy [4, 22] | Efficacy (Avena fatua (AVEFA); [13]) | Efficacy (Avena fatua (AVEFA); [18]) | Efficacy (Avena fatua (AVEFA); [22])

N#Cc1cc(Br)c(O)c(Br)c1 [bromoxynil]
85%: Efficacy [1, 24]
0%: pest or weed control at 100 g/ha (Eleusine indica (ELEIN); Eleusine indica, post-emergence, 336 h, 14 days after application, 100 g of a.i./ha) | pest or weed control at 400 g/ha (Eleusine indica (ELEIN); Eleusine indica, post-emergence, 336 h, 14 days after application, 400 g of a.i./ha) | Efficacy (Setaria viridis (SETVI); [24]) | Efficacy (Setaria viridis (SETVI); [26]) | Efficacy (Setaria viridis (SETVI); [27]) | Efficacy (Setaria viridis (SETVI); [25]) | Efficacy (DIGSA; [24]) | Efficacy (DIGSA; [26]) | Efficacy (DIGSA; [27]) | Efficacy (DIGSA; [25]) | Efficacy [6, 24] | Efficacy [6, 26] | Efficacy [6, 25]
75%: Efficacy [1, 25]
40%: Efficacy [3, 26]

CS(=O)(=O)c1cc(C(F)(F)F)ccc1C(=O)c1cnoc1C1CC1 [isoxaflutole]
60%: pest or weed control at 10 g/ha (Eleusine indica (ELEIN); [28]) | Efficacy [6, 13] | Efficacy [6, 31]
10%: Efficacy (DIGSA; [13]) | Efficacy [6, 10] | Efficacy [6, 30]
40%: Efficacy [3, 30]
20%: pest or weed control at […] (Eleusine indica (ELEIN); [28]) | pest or weed control at 10 g/ha (Eleusine indica (ELEIN); [29])
0%: pest or weed control at […] (Eleusine indica (ELEIN); [29]) | Efficacy (Setaria viridis (SETVI); [30]) | Efficacy (Setaria viridis (SETVI); [31]) | Efficacy (DIGSA; [31])
65%: Efficacy (Solanum nigrum (SOLNI); [31])

O=c1[nH]c2c(c(=O)n1C1CCCCC1)CCC2 [lenacil]
0%: pest or weed control at 300 g/ha (Eleusine indica (ELEIN); [32]) | pest or weed control at 1200 g/ha (Eleusine indica (ELEIN); [32]) | pest or weed control at 300 g/ha (Eleusine indica (ELEIN); [33]) | pest or weed control at 1200 g/ha (Eleusine indica (ELEIN); [33]) | Efficacy (Setaria viridis (SETVI); [34]) | Efficacy (Setaria viridis (SETVI); [35]) | Efficacy (Setaria viridis (SETVI); [36]) | Efficacy (Setaria viridis (SETVI); [37]) | Efficacy [3, 35] | Efficacy [3, 36] | Efficacy [3, 37] | Efficacy (DIGSA; [34]) | Efficacy (DIGSA; [35]) | Efficacy (DIGSA; [36]) | Efficacy (DIGSA; [37]) | Efficacy (Solanum nigrum (SOLNI); [34]) | Efficacy (Solanum nigrum (SOLNI); [35]) | Efficacy (Solanum nigrum (SOLNI); [36]) | Efficacy (Solanum nigrum (SOLNI); [37]) | Efficacy [6, 34] | Efficacy [6, 35] | Efficacy [6, 36] | Efficacy [6, 37]
